Measurements published in patent US11497761B2, “Compositions for the treatment of metastatic cancer” (priority 2019, dated 2022).

Tested on: iCTCs from prostate cancer patients
Test: iCTC drug response (CDR) testing ex vivo, Project 1 Study-Prostate Cancer
Type: cell-based, human
Settings: for number of live iCTCs remaining after treatment: 72 hours
Procedure: Materials for Project 1 Study-Prostate Cancer • Blood collection tubes: BD Vacutainer® 10 mL sodium heparin tube (BD catalog #367874)). • Vita-Assay™ AN6W plate. • Blood: prostate cancer, up to 40-mL blood was collected from patients and provided by Conversant bio. • Stock Solution and Dilutions • Monolaurin, 4.78 mM with 0.75% PS-80 (Stock Solution C), 13.1 mg monolaurin in 0.25 mL PS-80 and 0.75 mL water and 0.1 mL of this solution was diluted with 0.9 mL of RPMI. Stock solutions were stable for 2 weeks at 4 degrees C. Monolaurin used is an equal mixture of 1-, 2-, and 3-isomers of monolaurin. • Dilution: Monolaurin: Add 209.2 uL, 627.6 uL, and 1.2552 mL of CPI-2400 in 0.75% PS-80 (Stock solution C) and dilute to 10 mL of media to achieve final concentrations of 100 uM, 200 uM, and 300 uM final concentrations of drug cell exposure respectively.
With respect to FIG. 1, a depiction of a generalized experimental scheme for testing efficacy of a composition in accordance with an exemplary embodiment of the present invention against iCTC from the blood of prostate cancer patients is shown. Invasive circulating tumor cells (iCTCs) were obtained from venous blood of the individual with advanced prostate cancer, cultured and exposed to a specific drug or battery of drugs at 1×, 2×, and 3× concentrations in vitro for 3 days. Drug responsiveness was measured by automatic flow cytometry using the reduction of live iCTCs in the treated samples from the number of live iCTCs in the untreated controls. The greater the reduction of iCTCs of a given drug at a given dose indicates greater responsiveness to that dose of the drug. Four AN6W plates were used for each sample. Control and drug at each dose in triplicate were incubated for 72 hours. The iCTCs were measured by flow cytometry and viewed by microscopy as described. The complete culture medium contains 10% fetal bovine serum.
The complete experimental procedure for The Project 1 Study-Prostate Cancer followed the same procedure as that used with respect to The Project 1 Study-Pancreatic Cancer. With reference to FIGS. 5 and 6, flow cytometry evaluation: Count tumor cells and immune cells by using a 4-channel (FITC, PE, APC, and 7AAD) flow cytometer. iCTC is defined as: EPI^+TP^+CD45^−[…] • FIG. 5 depicts images of solitary and clustered iCTCs with specific markers in a cytospin preparation of the RP-19 sample. […] Pink arrows indicated iCTC clusters. A tumor cell was positively stained with green fluorescence-epithelial marker (GF-Epi), blue fluorescence nucleic acid dye (BF-Hoechst) and red fluorescence tumor progenitor (TP) marker (RF-TP). White arrows indicate WBCs that were not stained by Epi and TP tumor markers. Bar=40 μm. Cells from RP-19 were cultured for 3 days before staining.

SMILES: CCCCCCCCCCCC(=O)OCC(O)CO (stereo not shown) [Monolaurin, glycerol monolaurate]
- kill rates of iCTCs (summary) (iCTCs from prostate cancer patients): high kill rates
- number of live iCTCs remaining after treatment (patient RP02 (Taxotere), iCTC control 450, 100 uM monolaurin): 0
- number of live iCTCs remaining after treatment (patient RP02 (Taxotere), iCTC control 450, 200 uM monolaurin): 0
- number of live iCTCs remaining after treatment (patient RP02 (Taxotere), iCTC control 450, 300 uM monolaurin): 0
- number of live iCTCs remaining after treatment (patient RP06 (Taxotere), iCTC control 40, 100 uM monolaurin): 10
- number of live iCTCs remaining after treatment (patient RP06 (Taxotere), iCTC control 40, 200 uM monolaurin): 0
- number of live iCTCs remaining after treatment (patient RP06 (Taxotere), iCTC control 40, 300 uM monolaurin): 0
- number of live iCTCs remaining after treatment (patient RP07 (Taxotere), iCTC control 200, 100 uM monolaurin): 0
- number of live iCTCs remaining after treatment (patient RP07 (Taxotere), iCTC control 200, 200 uM monolaurin): 0
- number of live iCTCs remaining after treatment (patient RP07 (Taxotere), iCTC control 200, 300 uM monolaurin): 0
- number of live iCTCs remaining after treatment (patient RP08 (Taxotere), iCTC control 60, 100 uM monolaurin): 0
- number of live iCTCs remaining after treatment (patient RP08 (Taxotere), iCTC control 60, 200 uM monolaurin): 0
- number of live iCTCs remaining after treatment (patient RP08 (Taxotere), iCTC control 60, 300 uM monolaurin): 0
- number of live iCTCs remaining after treatment (patient RP09 (Taxotere), iCTC control 225, 100 uM monolaurin): 0
- number of live iCTCs remaining after treatment (patient RP09 (Taxotere), iCTC control 225, 200 uM monolaurin): 0
- number of live iCTCs remaining after treatment (patient RP09 (Taxotere), iCTC control 225, 300 uM monolaurin): 0
- number of live iCTCs remaining after treatment (patient RP13 (Taxotere), iCTC control 75, 100 uM monolaurin): 0
- number of live iCTCs remaining after treatment (patient RP13 (Taxotere), iCTC control 75, 200 uM monolaurin): 0
- number of live iCTCs remaining after treatment (patient RP13 (Taxotere), iCTC control 75, 300 uM monolaurin): 0
- number of live iCTCs remaining after treatment (patient RP15 (Taxotere), iCTC control 50, 100 uM monolaurin): 20
- number of live iCTCs remaining after treatment (patient RP15 (Taxotere), iCTC control 50, 200 uM monolaurin): 10
- number of live iCTCs remaining after treatment (patient RP15 (Taxotere), iCTC control 50, 300 uM monolaurin): 0
- number of live iCTCs remaining after treatment (patient RP19 (Taxotere), iCTC control 425, 100 uM monolaurin): 50
- number of live iCTCs remaining after treatment (patient RP19 (Taxotere), iCTC control 425, 200 uM monolaurin): 50
- number of live iCTCs remaining after treatment (patient RP19 (Taxotere), iCTC control 425, 300 uM monolaurin): 0
- number of live iCTCs remaining after treatment (patient RP20 (Taxotere), iCTC control 50, 100 uM monolaurin): 20
- number of live iCTCs remaining after treatment (patient RP20 (Taxotere), iCTC control 50, 200 uM monolaurin): 10
- number of live iCTCs remaining after treatment (patient RP20 (Taxotere), iCTC control 50, 300 uM monolaurin): 5
- number of live iCTCs remaining after treatment (patient RP212 (Taxotere), iCTC control 55, 100 uM monolaurin): 30
- number of live iCTCs remaining after treatment (patient RP212 (Taxotere), iCTC control 55, 200 uM monolaurin): 10
- number of live iCTCs remaining after treatment (patient RP212 (Taxotere), iCTC control 55, 300 uM monolaurin): 10
- number of live iCTCs remaining after treatment (patient Rp05 (Taxotere), iCTC control 20, 100 uM monolaurin): 15
- number of live iCTCs remaining after treatment (patient Rp05 (Taxotere), iCTC control 20, 200 uM monolaurin): 0
- number of live iCTCs remaining after treatment (patient Rp05 (Taxotere), iCTC control 20, 300 uM monolaurin): 0
